Results on three molecules are retold here after article PMC7070078, “Accelerated identification of serine racemase inhibitor from Centella asiatica” (Scientific Reports, 2020).

Values joined by “and” are separate entries in the source; they are usually repeats but may differ in a detail not shown here. Equal entries are not always repeated.

Series [1] has as its target T1, serine racemase (Homo sapiens, UniProt Q9GZT4).
T1 sequence (Q9GZT4 1-340): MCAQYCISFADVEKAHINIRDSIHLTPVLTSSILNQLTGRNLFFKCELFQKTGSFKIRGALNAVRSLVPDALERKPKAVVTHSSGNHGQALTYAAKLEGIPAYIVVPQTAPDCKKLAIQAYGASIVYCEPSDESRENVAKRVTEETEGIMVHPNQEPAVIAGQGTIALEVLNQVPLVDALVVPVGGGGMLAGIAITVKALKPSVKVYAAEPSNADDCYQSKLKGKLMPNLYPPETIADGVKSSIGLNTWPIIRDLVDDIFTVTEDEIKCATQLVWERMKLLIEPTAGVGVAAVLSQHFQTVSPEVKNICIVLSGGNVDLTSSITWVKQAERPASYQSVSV
Put plainly: affinity pull-down from Centella asiatica extract on immobilized SR, identified by LC-MS/MS and FTIR. The class given is binding. Set-up: gene SRR; recombinant His-tagged human SR immobilized on Ni-NTA beads.

In series [2] the target is T1, serine racemase. In words: SR activity assay, reference inhibitor (Supplementary Fig. S6). In kind it is biochemical. More on the design: gene SRR; recombinant His-tagged human SR (1020 bp gene, NM_021947.1), expressed in E. coli.
Series [3] deals with the molecule itself. Put plainly: SEC; Ni-NTA purified SR on Sephadex S-200, 1 ml/min, 20 mM Tris-HCl, 150 mM NaCl, 15 uM PLP pH 8.0.

With `C[C@H]1[C@H](C)CC[C@]2(C(=O)O)CC[C@]3(C)C(=CC[C@@H]4[C@@]5(C)C[C@@H](O)[C@H](O)[C@@](C)(CO)[C@@H]5[C@H](O)C[C@]43C)[C@H]12` [madecassic acid], the “affinity pull-down from Centella asiatica extract on immobilized SR, identified” value at serine racemase [1] is “Madecassoside and madecassic acid are the two compounds identified from the CA plant extract binding to SR”.
Usually IC50 stands for the concentration at which inhibition is half-maximal. As to `O=C(O)CC(=O)O` [malonate], on serine racemase [2], the IC50 was found to be 449 µM.

B1: recombinant human serine racemase (enzyme, UniProt Q9GZT4 1-340, looked up)
chain: MCAQYCISFADVEKAHINIRDSIHLTPVLTSSILNQLTGRNLFFKCELFQKTGSFKIRGALNAVRSLVPDALERKPKAVVTHSSGNHGQALTYAAKLEGIPAYIVVPQTAPDCKKLAIQAYGASIVYCEPSDESRENVAKRVTEETEGIMVHPNQEPAVIAGQGTIALEVLNQVPLVDALVVPVGGGGMLAGIAITVKALKPSVKVYAAEPSNADDCYQSKLKGKLMPNLYPPETIADGVKSSIGLNTWPIIRDLVDDIFTVTEDEIKCATQLVWERMKLLIEPTAGVGVAAVLSQHFQTVSPEVKNICIVLSGGNVDLTSSITWVKQAERPASYQSVSV
notes: serine racemase, human; printed size 37 kDa; no cleavage is described and the purified protein was later held on Ni-NTA beads; PLP was present in the purification buffers; also called SR; recombinant SR
Usually stoichiometry N stands for the number of molecules, sites or subunits per partner or assembly. For B1, the “stoichiometry N” value in series [3] was 2 and 4.
